# In ChEMBL document CHEMBL1201862, “PubChem BioAssay data set” (2004):
#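 All cell lines were grown in 96-well plates and treated with compound for 48 hours. At the GI50, growth is halved.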 Activity calls are given as the source filed them. No stated cut-off is given here; in the data, active = GI50 up to about 1.1 µM and inactive = higher.
# What was measured:
# Experiment in all cases: NCI tumour cell line growth inhibition, 48 h
# A498 = system: A498
# A549 = system: A549
# EKVX = system: EKVX
# HL-60 = system: HL-60
# K562 = system: K562
# LOX IMVI = system: LOX IMVI
# MCF7 = system: MCF7
# MDA-MB-231 = system: MDA-MB-231
# NCI-H226 = system: NCI-H226
# OVCAR-3 = system: OVCAR-3
# OVCAR-4 = system: OVCAR-4
# SF-268 = system: SF-268
# SF-295 = system: SF-295
# SF-539 = system: SF-539
# SK-OV-3 = system: SK-OV-3
# SNB-19 = system: SNB-19
# SNB-75 = system: SNB-75
# T47D = system: T47D
# UACC-257 = system: UACC-257
# UO-31 = system: UO-31
Structure (SMILES),GI50 (A498),GI50 (A549),GI50 (EKVX),GI50 (HL-60),GI50 (K562),GI50 (LOX IMVI),GI50 (MCF7),GI50 (MDA-MB-231),GI50 (NCI-H226),GI50 (OVCAR-3),GI50 (OVCAR-4),GI50 (SF-268),GI50 (SF-295),GI50 (SF-539),GI50 (SK-OV-3),GI50 (SNB-19),GI50 (SNB-75),GI50 (T47D),GI50 (UACC-257),GI50 (UO-31)
CCCCCCCCCCCCCCCCCCOCC(O)COP(=O)(O)OCC1OC(n2cc(F)c(=O)[nH]c2=O)CC1O (stereo not given),2.66 µM (inactive),0.51 µM (active),37 µM (inactive),6.56 µM (inactive),10.4 µM (inactive),0.658 µM (active),0.492 µM (active),19.1 µM (inactive),> 35.6 µM (inactive),13.7 µM (inactive),15.1 µM (inactive),0.236 µM (active),0.682 µM (active),0.0721 µM (active),12.8 µM (inactive),10.3 µM (inactive),2.89 µM (inactive),2.58 µM (inactive),12.8 µM (inactive),1.16 µM (inactive)
COCN1C(=O)[C@@H]2CCCN2C(=O)c2ccc([N+](=O)[O-])cc21,> 100 µM (inactive),> 100 µM (inactive),> 100 µM (inactive),87.5 µM (inactive),> 100 µM (inactive),> 100 µM (inactive),> 100 µM (inactive),> 100 µM (inactive),> 100 µM (inactive),> 100 µM (inactive),> 100 µM (inactive),> 100 µM (inactive),> 100 µM (inactive),> 100 µM (inactive),> 100 µM (inactive),> 100 µM (inactive),> 100 µM (inactive),> 100 µM (inactive),> 100 µM (inactive),> 100 µM (inactive)
[N-]=[N+]=CC(=O)C1CCCN1C(=O)c1ccccc1 (stereo not given),> 10 µM (inactive),> 10 µM (inactive),> 10 µM (inactive),> 10 µM (inactive),> 10 µM (inactive),> 10 µM (inactive),> 10 µM (inactive),> 10 µM (inactive),> 10 µM (inactive),> 10 µM (inactive),> 10 µM (inactive),> 10 µM (inactive),> 10 µM (inactive),> 10 µM (inactive),> 10 µM (inactive),> 10 µM (inactive),0.585 µM (active),> 10 µM (inactive),> 10 µM (inactive),> 10 µM (inactive)
C=C(Cl)[C@@](Cl)(CBr)CC[C@@H](Br)C(C)(C)Cl,0.938 µM (active),1.43 µM (inactive),2.97 µM (inactive),0.3 µM (active),0.473 µM (active),13.2 µM (inactive),0.249 µM (active),0.211 µM (active),26.2 µM (inactive),0.506 µM (active),0.912 µM (active),0.251 µM (active),0.207 µM (active),0.141 µM (active),9.16 µM (inactive),0.499 µM (active),0.24 µM (active),0.153 µM (active),0.557 µM (active),0.834 µM (active)
COC(=O)[C@@H]1C[C@H]([Se]c2ccccc2)CN1S(=O)(=O)c1ccc(C)cc1,> 100 µM (inactive),51.8 µM (inactive),> 100 µM (inactive),36.3 µM (inactive),34.7 µM (inactive),> 100 µM (inactive),60.3 µM (inactive),> 100 µM (inactive),> 100 µM (inactive),56 µM (inactive),42.8 µM (inactive),27.9 µM (inactive),40.9 µM (inactive),> 100 µM (inactive),> 100 µM (inactive),> 100 µM (inactive),2.87 µM (inactive),35.7 µM (inactive),> 100 µM (inactive),51.9 µM (inactive)
Cc1cc(C2CC(O)C(CO)O2)c(F)cc1F (stereo not given),> 100 µM (inactive),> 100 µM (inactive),> 100 µM (inactive),91.6 µM (inactive),> 100 µM (inactive),> 100 µM (inactive),> 100 µM (inactive),> 100 µM (inactive),> 100 µM (inactive),> 100 µM (inactive),> 100 µM (inactive),> 100 µM (inactive),> 100 µM (inactive),> 100 µM (inactive),> 100 µM (inactive),> 100 µM (inactive),> 100 µM (inactive),> 100 µM (inactive),> 100 µM (inactive),> 100 µM (inactive)
CCN(CC)c1ccc(/C=C(\C#N)c2nc(N)nc(N3N=C(C)CC3(C)C)n2)cc1,16.2 µM (inactive),16.2 µM (inactive),24.4 µM (inactive),43.7 µM (inactive),> 38.1 µM (inactive),14 µM (inactive),32 µM (inactive),13.6 µM (inactive),2.9 µM (inactive),17.5 µM (inactive),11.6 µM (inactive),15 µM (inactive),16.6 µM (inactive),6.89 µM (inactive),6.61 µM (inactive),17.9 µM (inactive),10 µM (inactive),17.2 µM (inactive),45.2 µM (inactive),22.4 µM (inactive)
Cc1c2cccc(Sc3ccccc3)c2c2c3c(cccc13)[S+](c1ccccc1)C2 (stereo not given),2.65 µM (inactive),2.88 µM (inactive),2.71 µM (inactive),0.935 µM (active),0.408 µM (active),1.72 µM (inactive),1.33 µM (inactive),2.16 µM (inactive),2.33 µM (inactive),0.659 µM (active),1.98 µM (inactive),3.13 µM (inactive),1.78 µM (inactive),2.63 µM (inactive),1.84 µM (inactive),1.73 µM (inactive),1.94 µM (inactive),0.526 µM (active),0.594 µM (active),2.95 µM (inactive)
COc1ccc(CC2C3=C(CCCC3)CCN2C)cc1 (stereo not given),> 100 µM (inactive),> 100 µM (inactive),> 100 µM (inactive),29.4 µM (inactive),39 µM (inactive),> 100 µM (inactive),> 100 µM (inactive),> 100 µM (inactive),> 100 µM (inactive),> 100 µM (inactive),> 100 µM (inactive),43.1 µM (inactive),> 100 µM (inactive),> 100 µM (inactive),> 100 µM (inactive),> 100 µM (inactive),55.2 µM (inactive),69.2 µM (inactive),> 100 µM (inactive),58.3 µM (inactive)
COc1cc(-c2cc(=O)c3c(O)c(OC)c(OC)c(OC)c3o2)cc(OC)c1OC [GARDENIN],2.92 µM (inactive),7.18 µM (inactive),22.3 µM (inactive),> 60 µM (inactive),> 100 µM (inactive),6.31 µM (inactive),> 100 µM (inactive),2.91 µM (inactive),13.7 µM (inactive),3.36 µM (inactive),> 100 µM (inactive),8.71 µM (inactive),8.47 µM (inactive),17.1 µM (inactive),5.45 µM (inactive),10.7 µM (inactive),2.23 µM (inactive),10.2 µM (inactive),> 100 µM (inactive),7.36 µM (inactive)
